Results as given in patent US20080138288A1, “COMBINATIONS FOR TREATMENT OF NEOVASCULATURE” (Washington University, priority 2006, published 2008).

System: aortic vasa vasorum neovasculature
Assay: MRI signal enhancement of aortic vasa vasorum neovasculature in cholesterol-fed rabbits (Example 1, FIG. 1)
Type: in vivo
Conditions: weeks 2 to 8; atorvastatin in high-cholesterol chow, 44 mg/kg feed
Method: Cholesterol-fed rabbits received αvβ3-targeted paramagnetic nanoparticles (NP) with (n=9) or without (n=9) fumagillin (30 μg/kg body weight) at weeks 0 and 4. A portion of the animals (n=4 per group) was treated with atorvastatin included in the high-cholesterol chow (44 mg/kg feed). Assessment of antiangiogenic response was evaluated at weeks 2, 4, 6 and 8 using αvβ3-targeted paramagnetic NP lacking the drug. MRI signal enhancement from the aortic vasa vasorum neovasculature was calculated from transverse black-blood MR images (1.5 T) collected before and 4 hours post NP injection (1 ml/kg body weight). The MRI enhancement observed at each timepoint was normalized with respect to the enhancement measured at week 0.

**Q.** Which “MRI enhancement in the thoracic aorta, normalized to week 0, time course” value does the source give for `CC(C)c1c(C(=O)Nc2ccccc2)c(-c2ccccc2)c(-c2ccc(F)cc2)n1CC[C@@H](O)C[C@@H](O)CC(=O)O` [atorvastatin] here?
**A.** slow decrease in enhancement
